This series is described as follows: solvent given as SMILES.

“And” between values parts separate entries of the source, which are not always exact repeats. Equal values may be shown once.

On to `Nc1ccc2c(c1)Cc1ccccc1-2`, for which the absorption maximum is recorded as 318 nm (in C1CCCCC1); 322 nm (in C1COCCO1); 325 nm (in CC#N); 317 nm (in CC(C)O); 318 nm (in CCCCCC); 317 nm (in CCCCCCC). Also, the absorption maximum (in CCO) is listed as 317 nm; the absorption maximum (in CCOC(C)=O) was 325 nm; the absorption maximum (in CCOCC) is given as 318 nm; the absorption maximum (in CO) was 317 nm; the absorption maximum (in ClCCl) is 319 nm; the absorption maximum (in O) was determined as 315 nm.
For the compound `CC1=C(c2ccccc2)C(C)=[N+]2C1=C(c1c(-c3ccccn3)nc3ccccn13)c1c(C)cc(C)n1[B-]2(F)F`, the absorption maximum (in ClCCl) came out at 532 nm.
Take `CCOC(=O)/C(C#N)=C\c1ccc2c(c1)c1ccccc1n2-c1ccc(C)cc1`: the absorption maximum reads like this: (in C1CCOC1) 390 nm; (in CC#N) 389 nm; (in CC(C)=O) 388 nm; (in CCOC(C)=O) 400 nm; (in CO) 391 nm; (in CS(C)=O) 397 nm. The absorption maximum reads like this: (in Cc1ccccc1) 396 nm; (in ClC(Cl)Cl) 389 nm.
As to `Nc1ccc2nc3c4ccccc4c(=[NH2+])cc-3oc2c1`, the absorption maximum (in CCO) is 600 nm.
For `CNCCCN1c2ccccc2CCc2ccccc21`, the absorption maximum reads like this: (in CC#N) 276 nm; (in CO) 276 nm; (in O) 275 nm.
`C1=C(c2ccccc2)C2=Nc3c(-c4ccccc4)cc4n3[B-]3(Oc5ccccc5C1=[N+]23)Oc1ccccc1-4` (stereo not drawn) gave an absorption maximum (in Cc1ccccc1) of 728 nm.
For the compound `CC1=C(c2cccs2)C(C)=[N+]2C1=C(c1ccccc1)c1c(C)c(-c3cccs3)c(C)n1[B-]2(F)F`, the absorption maximum is recorded as 521 nm (in CO), 530 nm (in Cc1ccccc1) and 527 nm (in ClCCl).
Consider `COc1cc2c(cc1OC)C1=C3C(=O)N4C=Cc5cc(OC)c(OC)cc5C4=C3C(=O)N1C=C2`, for which the absorption maximum by setting is: (in CN(C)C=O) 593 nm; (in ClC(Cl)Cl) 593 nm.
Compound `I[I-]I` yielded an absorption maximum (in O) of 351.77 nm.
In turn, `c1ccc(-c2nc(-c3ccc(-c4cncc5ccccc45)cc3)[nH]c2-c2ccccc2)cc1` showed an absorption maximum (in C1CCOC1) of 333 nm.
With `Nc1nc2c([nH]c(=O)n2[C@H]2C[C@H](O)[C@@H](CO)O2)c(=O)[nH]1`, for the setting “in O”, the absorption maximum came to 294.99 nm.
As for `COc1cc(-c2nnc(-c3ccc4ccc5cccc6ccc3c4c56)o2)cc(OC)c1OC`, the absorption maximum was 393 nm (in C1CCOC1); 392 nm (in CC1CCCCC1); 391 nm (in CC#N); 392 nm (in CCCCCC); 396 nm (in Cc1ccccc1); 396 nm (in ClC(Cl)Cl).
`CCC1=C(CC)C(C)=[N+]2C1=Cc1c(C)c3cc4c(cc3n1[B-]2(F)F)=[N+]1C(=Cc2c(CC)c(CC)c(C)n2[B-]1(F)F)C=4C` came in with an absorption maximum (in ClC(Cl)Cl) of 692 nm.
For the compound `CC1=CC(C)=[N+]2C1=C(c1ccccc1)c1c(C)cc(/C=C/c3ccc(O)cc3)n1[B-]2(F)F`, where the note is “in O”, the absorption maximum is reported as 565 nm.
With `CC1=C2C3=C(CCc4ccccc43)C(C)=[N+]2[B-](F)(F)n2c(C)c3c(c21)-c1ccccc1CC3`, the absorption maximum (in CC#N) is 559 nm.
With `C[Si](C)(C)c1ccc(-c2nc3ccccc3n2-c2ccccc2)cc1`, the absorption maximum (in ClCCl) was 301 nm.
`O=[N+]([O-])c1ccc(-c2nc(/C=C/c3ccc(Cl)cc3)c(/C=C/c3ccc(Cl)cc3)[nH]2)cc1`: the absorption maximum (in ClCCl) was 425 nm.
Take `Cc1ccc2nc(/C=C/c3ccc(N(C)C)cc3)c(-c3ccccc3)nc2c1`: the absorption maximum by setting is: (in C1COCCO1) 430 nm; (in CC#N) 433 nm; (in ClCCl) 436 nm.
In the case of `CCN(CC)c1ccc2c(C#N)c(/C=C(\C#N)c3nc4ccccc4s3)c(=O)oc2c1`, the absorption maximum runs as follows: (in C1COCCO1) 561 nm; (in CC#N) 597 nm; (in CCO) 602 nm; (in CCOC(C)=O) 568 nm; (in CN(C)C=O) 525 nm; (in CO) 591 nm. Moreover, the absorption maximum is 531 nm (in CS(C)=O), 560 nm (in Cc1ccccc1) and 611 nm (in ClCCl).
Compound `O=c1oc2ccc3ccc(O)cc3c2nc1-c1ccccc1` showed an absorption maximum (in c1ccccc1) of 406 nm.
For the compound `CCOC(=O)CN1C(=O)C2=C(c3ccc(N4CCCCC4)cc3)N(CC(=O)OCC)C(=O)C2=C1c1ccc(N2CCCCC2)cc1`, the absorption maximum is, setting by setting: (in CC#N) 523 nm; (in CS(C)=O) 540 nm; (in Cc1ccccc1) 520 nm.
In turn, `F[B-]1(F)OC(c2ccc3c(c2)Cc2ccccc2-3)=CC(c2ccccc2)=[O+]1` yielded an absorption maximum (in CC#N) of 412 nm.
As for `CC(C)[Si](C#Cc1ccc(C#C[Si](C(C)C)(C(C)C)C(C)C)c2nc3cc4c(cc3nc12)[C@H]1c2ccccc2[C@@H]4c2ccccc21)(C(C)C)C(C)C`, the absorption maximum by setting is: (in CCCCCC) 435 nm; (in ClCCl) 435 nm.
Regarding `CN(C)c1cc(-c2ccc(C#Cc3cc[n+](C)cc3)cc2)cc2ccccc12`, the absorption maximum (in ClCCl) came to 366 nm.
The compound `CCOC(=O)C1=CN(c2ccccc2)C=C(C(=O)OCC)C1c1ccccc1` showed an absorption maximum (in C1CCOC1) of 362 nm and an absorption maximum (in CO) of 366 nm.
On to `CCc1c(C)[nH]c(C2=[N+]3C(=C(C)c4c(C)c(CC)c(C)n4[B-]3(F)F)c3ccccc32)c1C`, for which the absorption maximum is 618 nm (in C1CCOC1); 610 nm (in CC#N); 620 nm (in CCCCCC); 613 nm (in CO); 625 nm (in Cc1ccccc1); 619 nm (in ClCCl).
For the compound `c1ccc(C2(c3ccccc3)c3ccccc3N(c3ccc(-c4nc([C@]56CC7CC(C[C@@H](C7)C5)C6)nc([C@]56C[C@H]7C[C@@H](C[C@H](C7)C5)C6)n4)cc3)c3ccccc32)cc1`, the absorption maximum (in Cc1ccccc1) is recorded as 367.02 nm.
`Cc1cc(O)c(C(=O)/C=C/c2ccccc2Cl)c(=O)o1`: the absorption maximum runs as follows: (in CC#N) 353 nm; (in ClCCl) 355 nm.
Take `N#Cc1c(-n2nnc3cc(Cl)ccc32)n([C@H]2C[C@H](O)[C@@H](CO)O2)c2ncnc(N)c12`: the absorption maximum (in CO) is 276 nm.
In the case of `c1csc(-c2cnc(-c3cccs3)c3nonc23)c1`, the absorption maximum is, setting by setting: (in C1CCCCC1) 461 nm; (in CC(C)=O) 461 nm; (in CCCCCC) 458 nm; (in CCCO) 466 nm; (in CCO) 460 nm; (in CCOCC) 462 nm. Besides, the absorption maximum is, setting by setting: (in CO) 460 nm; (in Cc1ccccc1) 465 nm; (in ClC(Cl)(Cl)Cl) 465 nm; (in ClC(Cl)Cl) 464 nm; (in Nc1ccccc1) 474 nm; (in O=[N+]([O-])c1ccccc1) 476 nm. Also, the absorption maximum runs as follows: (in OCC(O)CO) 471 nm; (in OCc1ccccc1) 473 nm; (in c1ccc2ncccc2c1) 477 nm; (in c1ccccc1) 465 nm; (in c1ccncc1) 472 nm.
In turn, `Cc1ccc2c(c1)NC(=O)CC(=O)N2` had an absorption maximum (in CS(C)=O) of 294 nm.
In the case of `CC1(C)c2ccccc2-c2ccc(N(c3ccccc3)c3ccc4c(c3)C(C)(C)c3cc(-c5cc6ccccc6c6c5oc5ccccc56)ccc3-4)cc21`, the absorption maximum (in C1CCOC1) is reported as 382 nm.
With `CC1=CC(C)=[N+]2C1=C(c1ccc(N(C)C)cc1)c1c(C)cc(C)n1[B-]2(F)F`, the absorption maximum (in C1CCOC1) is 499 nm; the absorption maximum (in CC#N) is recorded as 496 nm; the absorption maximum (in CC(=O)C(C)(C)C) was found to be 496 nm; the absorption maximum (in CC(C)=O) came out at 496 nm; the absorption maximum (in CCCCCC) came out at 500 nm; the absorption maximum (in CCOC(C)=O) is recorded as 498 nm. In addition, where the note is “in CO”, the absorption maximum is 500 nm and 492 nm.
The compound `CC(C)c1cc(C(C)C)c(B2c3cc(-n4c5ccc(C(C)(C)C)cc5c5cc(C(C)(C)C)ccc54)ccc3N(c3ccccc3)c3ccc(-n4c5ccc(C(C)(C)C)cc5c5cc(C(C)(C)C)ccc54)cc32)c(C(C)C)c1` gave an absorption maximum (in C1CCCCC1) of 410.54 nm.
Turning to `COC(=O)c1ccc(C(=O)NC(C)(C)C)c2c1ccc1c3ccccc3c3ccccc3c12`, where the note is “in ClCCl”, the absorption maximum was 336 nm.
Turning to `c1cc2ccc1CCCc1ccc(c3nsnc13)CCC2`, the absorption maximum by setting is: (in C1CCCCC1) 378 nm; (in CC#N) 384 nm; (in ClC(Cl)Cl) 384 nm.
`c1csc(-c2ccc(-c3ccc(-c4cccs4)s3)s2)c1` registered an absorption maximum (in CCCCCCCCCCCCCC) of 391 nm and an absorption maximum (in ClCCl) of 393 nm.
On to `CCCC1(CCC)c2cc(-c3ccc(C(C)(C)C)cc3)ccc2-c2ccc(-c3ccc4c(c3)C(CCC)(CCC)c3cc(-c5ccc6c(c5)C(CCC)(CCC)c5cc(-c7ccc(C(C)(C)C)cc7)ccc5-6)ccc3-4)cc21`, for which, under “in C1CCCCC1”, the absorption maximum came to 362 nm.
Consider `C=Cc1cc2ccc(OC(=O)c3ccccc3)cc2oc1=O`, for which the absorption maximum (in CC#N) turned out to be 328 nm.
Consider `COc1cc(N(c2ccccc2)c2ccc(C=C(C#N)C#N)c(OC)c2)ccc1C=C(C#N)C#N`, for which the absorption maximum reads like this: (in C1COCCO1) 464 nm; (in CC#N) 477 nm; (in CC(C)=O) 470 nm; (in CCOC(C)=O) 468 nm; (in CN(C)C=O) 469 nm; (in CO) 471 nm. For the same compound, the absorption maximum came out at 471 nm (in Cc1ccccc1), 480 nm (in ClC(Cl)Cl) and 479 nm (in ClCCl).
As for `CC1=[N+]2C(=C(C3=CC4OCCOCCOCCOCCOC4C=C3)c3c4ccccc4c(/C=C/c4ccc(N(C)C)cc4)n3[B-]2(F)F)c2ccccc21` (stereo not drawn), the absorption maximum (in CC#N) was found to be 693 nm.
As to `CC1=CC(C)=[N+]2C1=C(c1ccc(I)cc1)c1c(C)cc(C)n1[B-]21OCCO1`, the absorption maximum (in ClC(Cl)Cl) turned out to be 507 nm.

For the origin of these results see the Deep4Chem optical property database.
